≈ marks a conversion by molar mass, not a printed value. Calls of active or inactive are those of the source. The calls are words filed in the database; no cut-off is given here.
How the values were obtained:
Mushroom tyrosinase [1] = target: T1, Mushroom tyrosinase (Agaricus bisporus, UniProt O42713+Q00024+C7FF04+C7FF05); test: Inhibition of monophenolase activity of mushroom tyrosinase using L-Tyrosine substrate incubated for 10 mins followed by substrate addition and measured for 15 mins
Mushroom tyrosinase [2] = target: T1, Mushroom tyrosinase; test: Inhibition of monophenolase activity of mushroom tyrosinase using L-Tyrosine substrate incubated for 10 mins followed by substrate addition and measured for 20 mins
Mushroom tyrosinase [3] = target: T1, Mushroom tyrosinase; test: Inhibition of monophenolase activity of mushroom tyrosinase using L-Tyrosine substrate incubated for 5 mins followed by substrate addition and measured for 30 mins by colorimetry
Mushroom tyrosinase [4] = target: T1, Mushroom tyrosinase; test: Inhibition of monophenolase activity of mushroom tyrosinase using L-Tyrosine substrate incubated for 30 mins by spectrophotometry
B16-F10 [5] = test: Cytotoxicity against mouse B16-F10 cells assessed as reduction in cell viability incubated for 72 hrs by XTT assay; format: cell-based; settings: B16-F10, 72 h
B16-F10 [6] = test: Inhibition of melanin production in mouse B16-F10 cells at 21.42 ug/ml relative to control; format: functional, cell-based; settings: dose 21.42 µg/ml
cells = settings: Mus musculus, B16-BL6, 120 h
Description: Cytotoxicity against mouse B16-BL6 cells assessed as reduction in cell viability incubated for 5 days by MTT assay

[7] = Inhibition of monophenolase activity of tyrosinase in C57BL/6 mouse melan-a cells incubated for 72 hrs by bradford method
[8] = Solubility of compound in water at >[…] uM; format: physicochemical; settings: buffer; dose >50 µM
[9] = target: T2, Mushroom tyrosinase (Agaricus bisporus) (UniProt O42713+Q00024+C7FF04+C7FF05); test: Inhibition of monophenolase activity of mushroom tyrosinase assessed as reduction in dopachrome formation using L-Tyrosine substrate incubated for 30 mins by spectrophotometry relative to control
Mushroom tyrosinase [10] = target: T1, Mushroom tyrosinase; test: Inhibition of diphenolase activity of mushroom tyrosinase assessed as reduction in dopachrome formation using L-DOPA substrate incubated for 30 mins
B16-F10 [11] = test: Inhibition of melanin production in mouse B16-F10 cells at 12.5 ug/ml relative to control; format: functional
B16-F10 [12] = test: Inhibition of melanin production in mouse B16-F10 cells at 25 ug/ml relative to control; format: functional
B16-F10 [13] = test: Inhibition of melanin production in mouse B16-F10 cells at 100 ug/ml relative to control; format: functional
B16-F1 = test: Inhibition of melanin production in C57BL/6J mouse B16-F1 cells incubated for 5 days; format: functional, cell-based; settings: B16-F1, 120 h
[14] = target: T2, Mushroom tyrosinase (Agaricus bisporus); test: Inhibition of monophenolase activity of mushroom tyrosinase at 100 uM relative to control
B16-F10 [15] = test: Inhibition of melanin production in mouse B16-F10 cells at 6.25 ug/ml relative to control; format: functional
B16-F10 [16] = test: Inhibition of melanin production in mouse B16-F10 cells at 12.5 to 25 ug/ml relative to control; format: functional; settings: dose 12.5-25 µg/ml
Mushroom tyrosinase [17] = target: T1, Mushroom tyrosinase; test: Inhibition of monophenolase activity of mushroom tyrosinase

## O=C(/C=C/c1ccc(O)cc1O)c1ccc(O)cc1O
Mushroom tyrosinase [1]
  IC50: 0.06 µM

## CC(C)=CCc1c(O)cc(O)c2c1O[C@H](c1ccccc1)CC2=O [GLABRANIN]
Mushroom tyrosinase [2]
  IC50: 80.6 µM

## Cc1c(O)c(C)c2c(c1O)C(=O)C[C@@H](c1ccccc1)O2 [DEMETHOXYMATTEUCINOL]
Mushroom tyrosinase [2]
  IC50: 97.6 µM

## O=c1c(-c2ccc(O)cc2)coc2cc(O)cc(O)c12 [GENISTEIN]
Mushroom tyrosinase [3]
  IC50: > 200 µM
Mushroom tyrosinase [4]
  IC50: 822 µM
B16-F10 [5]
  IC50: 79.2 µM
B16-F10 [6]
  inhibition: inactive
cells
  IC50: 4.18 µg/mL (≈ 15.5 µM)

## COc1cc(O)c(C(=O)[C@@H]2[C@H](CC=C(C)C)C(C)=CC[C@H]2c2ccccc2)c(O)c1 [PANDURATIN A]
[7]
  IC50: 8.2 µM

## O=c1c(O)c(-c2ccccc2)oc2cc(O)cc(O)c12 [GALANGIN]
[8]
  solubility: Insoluble
Mushroom tyrosinase [3]
  IC50: 420.37 µM
[9]
  inhibition: 20%
Mushroom tyrosinase [10]
  IC50: 101 µM
B16-F10 [5]
  IC50: > 200 µM
B16-F10 [11]
  inhibition at 12.5 µg/mL: 30%
B16-F10 [12]
  inhibition at 25 µg/mL: 40%

## OC[C@H]1O[C@@H](Oc2ccc(O)cc2)[C@H](O)[C@@H](O)[C@@H]1O [ARBUTIN]
B16-F10 [5]
  IC50: 391 µM
B16-F10 [13]
  inhibition at 100 µg/mL: 78%
B16-F1
  IC50: 122 µM

## O=C1C[C@@H](c2ccc(O)cc2)Oc2cc(O)cc(O)c21
[14]
  inhibition: 2.8%

## O=C1C[C@@H](c2ccccc2)Oc2cc(O)cc(O)c21 [PINOCEMBRIN]
Mushroom tyrosinase [3]
  IC50: > 200 µM
B16-F10 [5]
  IC50: 30.1 µM
B16-F10 [11]
  inhibition at 12.5 µg/mL: 8%

## COc1cc(O)c(C(=O)CCc2ccccc2)c(O)c1
Mushroom tyrosinase [3]
  IC50: > 200 µM
B16-F10 [5]
  IC50: 373 µM
B16-F10 [15]
  inhibition at 6.25 µg/mL: 10%

## O=C(CCc1ccccc1)c1c(O)cc(O)cc1O
Mushroom tyrosinase [3]
  IC50: 68.48 µM
B16-F10 [5]
  IC50: 219 µM
B16-F10 [16]
  inhibition (INH): 25%

## CC(C)=CCc1c(O)ccc(C(=O)/C=C/c2ccc(O)cc2O)c1O [MORACHALCONE A]
Mushroom tyrosinase [17]
  IC50: 0.14 µM
